Measured values as given in publication PMC12446476 (Nature Communications, 2025).

Test system: human hepatocytes
Protocol: Pooled human hepatocytes from 10-donor males (BioIVT, West Sussex, UK; MX008001) or 10-donor females (BioIVT, West Sussex, UK; FX008001) were incubated with test compounds (or vehicle) and the compound concentration was measured over time. Samples were incubated at 37 °C and concentrations were assessed after 0, 20-, 40-, 60- and 240-min. Verapamil was included as a control.
The instrument operated in positive ionisation mode (ESI + ) over a m/z range of 80–1000 (n = 1 measure per sample). Data were extracted from chromatograms using calculated monoisotopic accurate masses for protonated molecular ions within 5 ppm windows.

Question: For `Cc1c(CN(C)C(=O)/C=C/c2cnc3c(c2)N[C@H](C)[C@H](OP(=O)([O-])[O-])C(=O)N3)oc2ccccc12.[Na+].[Na+]` [Debio 1453 P], which “Intrinsic clearance (Clint)” value is on record?
Answer: The value was less than 0.44 µL/min/million cells.
